Values quoted from earlier work, collected in patent US20240279338A1, “Combination Treatment of Cancer” (Ares Trading S.A., priority 2021, published 2024).

Biological target: T1, A3 receptor (Homo sapiens, UniProt P0DMS8)
T1 sequence (P0DMS8 1-318): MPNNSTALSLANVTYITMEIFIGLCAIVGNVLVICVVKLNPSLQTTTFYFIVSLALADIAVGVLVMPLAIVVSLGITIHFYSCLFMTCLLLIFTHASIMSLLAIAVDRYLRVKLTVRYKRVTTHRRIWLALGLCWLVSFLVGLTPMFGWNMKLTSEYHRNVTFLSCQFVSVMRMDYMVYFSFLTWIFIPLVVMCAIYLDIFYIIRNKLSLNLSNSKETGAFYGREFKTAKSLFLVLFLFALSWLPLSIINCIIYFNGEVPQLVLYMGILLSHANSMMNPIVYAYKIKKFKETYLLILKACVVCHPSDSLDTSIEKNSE
Conditions: cited from earlier work

SMILES: Nc1ncnc2c1ncn2[C@@H]1O[C@H](CO)[C@@H](O)[C@H]1O [adenosine]
- adenosine sensitivity (affinity) of receptor: 100 nM
